Reference: patent EP3925956B1, “1H-INDAZOLE-3-CARBOXAMIDE DERIVATIVES AND RELATED COMPOUNDS AS FACTOR D INHIBITORS FOR TREATING DISEASES CHARACTERIZED BY ABERRANT COMPLEMENT SYSTEM ACTIVITY, SUCH AS E.G. IMMUNOLOGICAL DISORDERS” (BioCryst Pharmaceuticals, Inc., priority 2016, dated 2017)

Target: Factor D (Homo sapiens, UniProt P00746)
Assay: Factor D esterolytic assay

Sequence of Factor D (P00746 26-253): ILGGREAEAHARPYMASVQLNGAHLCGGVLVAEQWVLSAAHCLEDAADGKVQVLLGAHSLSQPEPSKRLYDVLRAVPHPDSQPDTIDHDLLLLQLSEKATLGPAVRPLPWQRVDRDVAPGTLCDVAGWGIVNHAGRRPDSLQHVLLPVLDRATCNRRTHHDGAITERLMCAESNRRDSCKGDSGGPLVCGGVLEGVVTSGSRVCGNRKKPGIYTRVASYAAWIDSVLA

Compound | IC50 [nM]
NC(=O)c1nn(CC(=O)N(CC(=O)NCc2cccc(Cl)c2F)[C@H]2C[C@H](N)C2)c2ccc(N)cc12 [351b, 5-amino-1-(2-(((trans)-3-aminocyclobutyl)(2-((3-chloro-2-fluorobenzyl)amino)-2-oxoethyl)amino)-2-oxoethyl)-1H-indazole-3-carboxamide] | < 1000
CN(C)CC[C@H](N)c1cccc(Cl)c1F [358f, (S)-1-(3-chloro-2-fluorophenyl)-N3,N3-dimethylpropane-1,3-diamine] | 1000 to 10000
